The values below come from ChEMBL document CHEMBL1142810, “Discovery of a potent and selective 5-ht5A receptor antagonist by high-throughput chemistry” (Bioorg Med Chem Lett, 2005).

Data set [1] is described as follows: Peak blood concentration in guinea pig at a dose of 3 mg/kg upon oral administration. It counts as ADME, organism-based, Cavia porcellus. Also on record: dose 3 mg/kg, route oral.
The target of data set [2] is Sodium-dependent serotonin transporter (Homo sapiens, UniProt P31645). Briefly: Binding affinity towards human serotonin transporter expressed in LLCPK cells using the radioligand [3H]citalopram. The data set is classed as cell-based.
Data set [3] is described as follows: Half life in guinea pig at a dose of 1 mg/kg upon intravenous administration. It counts as ADME, organism-based, Cavia porcellus. Also on record: dose 1 mg/kg, route intravenous. Conditions: in vivo.
The nature of data set [4]: Blood clearance in guinea pig at a dose of 1 mg/kg upon intravenous administration. The data set is classed as ADME, organism-based, Cavia porcellus. Also on record: dose 1 mg/kg, route intravenous.
The nature of data set [5]: Bioavailability in guinea pig at a dose of 3 mg/kg upon subcutaneous administration. Conditions: in vivo, sc. It counts as ADME, organism-based, Cavia porcellus.
A short description of data set [6]: Half life in guinea pig at a dose of 3 mg/kg upon oral administration. The data set is classed as ADME, organism-based, Cavia porcellus. Set-up: dose 3 mg/kg, route oral. Particulars: in vivo.
A short description of data set [7]: Half life in guinea pig at a dose of 3 mg/kg upon subcutaneous administration. It counts as ADME, organism-based, Cavia porcellus. Also on record: dose 3 mg/kg, route subcutaneous. Particulars: in vivo, sc.
Data set [8] in a line: Peak blood concentration in guinea pig at a dose of 3 mg/kg upon subcutaneous administration. Also on record: dose 3 mg/kg, route subcutaneous. The data set is classed as ADME, organism-based, Cavia porcellus. Particulars: sc.
A short description of data set [9]: Bioavailability in guinea pig at a dose of 3 mg/kg upon oral administration. It counts as ADME, organism-based, Cavia porcellus. Particulars: in vivo.
Data set [10] is described as follows: Volume of distribution in guinea pig at a dose of 1 mg/kg upon intravenous administration. It counts as ADME, organism-based, Cavia porcellus. Set-up: dose 1 mg/kg, route intravenous. Conditions: in vivo, read-out: Vdss.

pKi: −log10 of the molar value.

Chain of Sodium-dependent serotonin transporter (P31645 whole entry): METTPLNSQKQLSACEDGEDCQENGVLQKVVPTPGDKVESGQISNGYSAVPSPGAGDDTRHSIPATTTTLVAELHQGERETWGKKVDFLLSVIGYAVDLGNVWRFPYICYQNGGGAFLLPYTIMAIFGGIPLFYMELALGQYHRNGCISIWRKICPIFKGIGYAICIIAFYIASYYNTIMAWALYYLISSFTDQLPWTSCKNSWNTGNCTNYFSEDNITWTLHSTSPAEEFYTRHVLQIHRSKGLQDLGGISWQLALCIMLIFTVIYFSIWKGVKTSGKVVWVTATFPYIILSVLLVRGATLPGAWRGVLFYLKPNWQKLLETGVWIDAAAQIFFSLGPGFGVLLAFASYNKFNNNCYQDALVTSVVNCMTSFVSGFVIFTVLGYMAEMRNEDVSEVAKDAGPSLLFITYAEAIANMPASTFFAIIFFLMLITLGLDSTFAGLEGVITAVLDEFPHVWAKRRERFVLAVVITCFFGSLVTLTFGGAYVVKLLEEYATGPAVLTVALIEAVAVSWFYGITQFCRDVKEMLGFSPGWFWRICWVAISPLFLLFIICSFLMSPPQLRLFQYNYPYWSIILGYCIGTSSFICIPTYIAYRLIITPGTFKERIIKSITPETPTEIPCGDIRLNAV

In general, Cmax refers to the highest concentration seen after dosing. As a reminder, the pKi is the Ki on a negative log10 scale, so that one unit is a factor of ten. A lower pKi goes with a large Ki. For orientation: half-life means the time in which the quantity being followed falls by half. Lower therefore signals fast loss. Usually clearance stands for a measure of how efficiently the substance is removed, as volume per time. As usually defined, the bioavailability is the share of a dose that reaches the circulation, judged against a reference dose that is usually intravenous. A higher bioavailability goes with much systemic uptake. On to `CN(C)CCN(Cc1ccc(-c2ccc(CNCCc3ccccc3)cc2)cc1)C(=O)CCC1CCCC1.Cl.Cl`, for which the Cmax was found to be 20 ng/mL in data set [1] and 388 ng/mL in [8]. In addition, the pKi in data set [2] was 7.60. Besides, the half-life in data set [3] is 3.5 h; in [6], 3.9 h; in data set [7], 2.2 h. In [4], this molecule displayed a clearance of 22 mL/min/kg. The values for the bioavailability in data set [5] and in data set [9] were 63% and 4%, respectively. Further, the Vd in data set [10] came to 6.1 L/kg.
